What was measured:
[1] = Pharmacokinetics in mice administrated with single compound; type: in vivo, mice (C57BL/6J); conditions: mouse, plasma, male C57BL/6J mice; for bioavailability: oral 10 mg/kg vs intravenous 2 mg/kg; for AUC / Cmax / Tmax: oral (intragastrical) 10 mg/kg
Experimental: 12 male mice (C57BL/6J) were randomly divided into two groups, i.e., 6 mice per group. […] Plasma (using K2-EDTA as anticoagulant) samples were taken at 0.083, 0.25, 0.5, 1, 2, 4, 6, 8 and 24 hours in the intravenous administration group after administration; and plasma samples were taken at 0.25, 0.5, 1, 2, 4, 6, 8 and 24 hours in the oral administration group after administration. For 6 animals in each group, blood samples were collected for 3 animals at one time point. The first batch of 3 animals was alternately sampled with the second batch of 3 animals. Plasma sample analysis was performed by using LC-MS/MS. The resultant plasma concentrations were plotted with respect to time, and PK parameters were calculated by using Phoenix WinNonlin 6.3.

[2] = biological target: T1, FXR (FXR HEK 293T DA cells) (Homo sapiens, UniProt Q96RI1); test: FXR cell experiment (β-lactamase reporter gene); type: cell-based
T1 sequence (Q96RI1 262-486 limits assumed): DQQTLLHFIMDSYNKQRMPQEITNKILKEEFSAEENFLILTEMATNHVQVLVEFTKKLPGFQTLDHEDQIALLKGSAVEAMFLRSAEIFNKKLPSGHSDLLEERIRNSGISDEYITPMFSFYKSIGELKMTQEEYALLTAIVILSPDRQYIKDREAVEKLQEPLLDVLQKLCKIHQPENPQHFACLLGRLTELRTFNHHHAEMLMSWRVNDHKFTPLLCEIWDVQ
Experimental: 2. Cell culture medium: DMEM medium supplemented with 10% serum and Penicillin/Streptomycin (1×)
3. Detection reagent: GeneBLAzer® Reporter Gene Detection Kit (Invitrogen)
1. Compound Dilution: The compound to be tested was prepared as a 100 μM DMSO solution, and then the compound was diluted 3-fold to 10 concentration points. The reference compound was prepared as a 100 μM DMSO solution, and then diluted 1.3-fold to 10 concentration points. The diluted DMSO solution was added to the wells of a 384-well plate in a volume of 200 nL per well.
3. The 384-well plate was incubated at 37° C., 5% CO2 for 16 hours.
4. 6 μL of 1 mM LiveBLAzer™-FRET 13/G (CCF4-AM) substrate was mixed with 60 μL of B solution and 934 μL of C solution, and added to the wells of the 384-well plate in a volume of 8 μL per well.
5. The 384-well plate was incubated in dark for 2 hours at room temperature.
7. Analytical data: The data was analyzed via using Prism 5.0, and the EC50 values of the activation effects of the compound were calculated.

[3] = biological target: T2, Glutathione-S-transferase-labeled FXR human protein (Homo sapiens, UniProt Q96RI1); test: FXR biochemical experiment (AlphaScreen, coactivator recruitment)
T2 sequence (Q96RI1 1-486): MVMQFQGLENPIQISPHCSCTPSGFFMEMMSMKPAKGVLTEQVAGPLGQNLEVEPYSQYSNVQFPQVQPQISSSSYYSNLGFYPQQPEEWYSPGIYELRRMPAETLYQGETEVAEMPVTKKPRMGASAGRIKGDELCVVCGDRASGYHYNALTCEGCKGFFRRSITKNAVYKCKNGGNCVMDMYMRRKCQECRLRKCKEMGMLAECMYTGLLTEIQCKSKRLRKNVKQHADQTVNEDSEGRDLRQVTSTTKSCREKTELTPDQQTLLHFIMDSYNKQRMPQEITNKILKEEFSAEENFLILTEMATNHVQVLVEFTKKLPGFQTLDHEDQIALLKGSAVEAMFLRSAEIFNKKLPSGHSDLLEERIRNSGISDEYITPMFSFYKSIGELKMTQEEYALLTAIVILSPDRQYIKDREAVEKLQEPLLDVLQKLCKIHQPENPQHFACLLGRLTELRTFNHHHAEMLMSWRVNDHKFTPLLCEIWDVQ
Experimental: The activation effect of the compound on FXR binding reaction was detected by AlphaScreen. […] Protein: Glutathione-S-transferase-labeled FXR human protein (Invitrogen) 2. Co-activator: Biotin-labeled steroid receptor coactivator (Anaspec) 3. […] Compound Dilution: The compound to be tested was prepared as a 40 μM DMSO solution, and then diluted 3-fold to 10 concentration points. The reference compound was prepared as a 400 μM DMSO solution, and then diluted 1.5-fold to 10 concentration points. The diluted DMSO solution was added to the wells of a 384-well plate in a volume of 150 nL per well. 2. […] 4. […] The operation during the experimental process was protected from light. The incubation was performed for 1 hour at room temperature. 5. […] The operation during the experimental process was protected from light. The incubation was performed for 1 hour at room temperature. 6. EC50 test: Envision was used with excitation at 680 nm to read the absorbance signals at 520-620 nm. 7. Analytical data: The data were analyzed via using Prism 5.0, and the EC50 values of the activation effects of the compound were calculated.

[4] = Test for hygroscopicity, Dynamic Vapor Sorption (DVS); type: physicochemical; conditions: 25±1° C., 80±2% RH
Experimental: Dynamic Vapor Sorption (DVS) analysis was performed on crystalline Form A and the solid amorphous form of the compound of formula I by the following process and conditions: the samples (10 to 15 mg) were placed in the sample pan; instrument model: SMS DVS Advantage Dynamic Vapor Sorption; temperature: 25° C.; balance: dm/dt=0.01%/min (Min: 10 min, Max: 180 min); drying: for 120 min at 0% RH; RH (%) gradient for testing: 10%; the RH (%) range for gradient testing: 0%-90%-0%. The hygroscopicity was evaluated using the following scale: […]

[5] = Solid-state stability test (XRPD detection); type: physicochemical; conditions: room temperature/75% RH, 40° C./75% RH, 60° C./75% RH (all open); for Solid-state stability: crystalline form by XRPD compared with Day 0: room temperature/92.5% RH, Day 5 and Day 10
Experimental: In the present application, the X-ray powder diffraction patterns are measured by the following method: instrument: Bruker D8 ADVANCE X-ray diffractometer; method: target: Cu: K-Alpha; wavelength: λ=1.54179 Å; tube voltage: 40 kV; divergence slit: 0.60 mm; detector slit: 10.50 mm; antiscattering slit: 7.10 mm; tube current: 40 mA; scan range: 4° to 40°; scanning speed: 0.12 sec/step, 0.02°/step; sample tray rotation speed: 15 rpm.
The solid-state stability of crystalline Form A was examined under the following conditions: 1) 40° C. (open), 2) 60° C. (open), 3) room temperature/92.5% RH (open), 4) room temperature/75% RH (open), 5) 40° C./75% RH (open), and 6) 60° C./75% RH (open), wherein the room temperature was selected from 20° C. to 30° C.
(§1) Several samples of crystalline Form A in a suitable amount were taken, and placed on the bottom of the glass specimen bottles and spread into a thin layer. The bottles with the samples to be placed under the abovementioned conditions were capped with aluminum-foil paper which has been punched with several small holes, which ensures that the samples could be in full contact with the ambient air.
The solid-state stability of crystalline Form B was examined under the following conditions: 1) room temperature/92.5% RH (open), 2) room temperature/75% RH (open), 3) 40° C./75% RH (open), and 4) 60° C./75% RH (open), which the room temperature was selected from 20° C. to 30° C.
as §1, with “B” for “A”
The solid-state stability for the solid amorphous form of the compound of formula I was examined under the following conditions: 1) room temperature/75% RH (open), 2) 40° C./75% RH (open), 3) 60° C./75% RH (open), wherein the room temperature was selected from 20° C. to 30° C. […]

| Structure (SMILES) | bioavailability [1] [%] | AUC [1] [µM·h] | Cmax [1] [nM] | Tmax [1] [min] | hygroscopic weight gain [4] [%] | also measured |
| --- | --- | --- | --- | --- | --- | --- |
| CC[C@H]1[C@@H](O)[C@@H]2[C@H](CC[C@]3(C)[C@@H]([C@H](C)CCC(=O)O)CC[C@@H]23)[C@@]2(C)CC[C@@H](O)C[C@@H]12 [Obeticholic acid, reference compound] | 13 | 0.993 | 1010 | 18 |  |  |
| CC[C@H]1[C@@H](O)[C@@H]2[C@H](CC[C@]3(C)[C@@H]([C@H](C)CCOc4ncc(C(=O)O)cc4Cl)CC[C@@H]23)[C@@]2(C)CC[C@@H](O)C[C@@H]12 [The compound of formula I] | 20 | 1.11 | 1780 | 30 |  | EC50 ([2]; FXR HEK 293T DA cells, β-lactamase reporter gene, 16 hours, read-out: FXR cell viability EC50): 3 nM; FXR cell viability Efficacy ([2]; highest signal relative to reference compound CDCA): 150%; EC50 ([3]; AlphaScreen, GST-FXR human protein with biotin-labeled steroid receptor coactivator, read-out: FXR enzyme activity EC50): 2.5 nM; FXR enzyme activity Efficacy ([3]; highest signal relative to the reference compound): 248% |
| CC[C@H]1[C@@H](O)[C@@H]2[C@H](CC[C@]3(C)[C@@H]([C@H](C)CCOc4ncc(C(=O)O)cc4Cl)CC[C@@H]23)[C@@]2(C)CC[C@@H](O)C[C@@H]12 [crystalline Form A] |  |  |  |  | 0.835 | Solid-state stability: crystalline form by XRPD compared with Day 0 ([5]; 40° C., 60° C.): remained unchanged |
| CC[C@H]1[C@@H](O)[C@@H]2[C@H](CC[C@]3(C)[C@@H]([C@H](C)CCOc4ncc(C(=O)O)cc4Cl)CC[C@@H]23)[C@@]2(C)CC[C@@H](O)C[C@@H]12 [crystalline Form B] |  |  |  |  |  | Solid-state stability: crystalline form by XRPD compared with Day 0 [5]: remained unchanged |
| CC[C@H]1[C@@H](O)[C@@H]2[C@H](CC[C@]3(C)[C@@H]([C@H](C)CCOc4ncc(C(=O)O)cc4Cl)CC[C@@H]23)[C@@]2(C)CC[C@@H](O)C[C@@H]12 [solid amorphous form of the compound of formula I] |  |  |  |  | 1.775 | Solid-state stability: XRPD compared with Day 0 ([5]; Day 10 and one month): remained unchanged |

Source: US11059853B2, “Crystalline or amorphous form of steroid derivative FXR agonist, preparation method therefor and use thereof” (Chia Tai Tianqing Pharmaceutical Group Co., Ltd., priority 2017, dated 2021)
